pIC50: −log10 of the molar value.

The assay deals with HeLa cells. Nature of the assay: Proliferation assay, crystal violet staining. Conditions: Homo sapiens, 96 h, read-out: Inhibition of HeLa cell proliferation, HeLa cells, 4 days incubation.

Procedure: After 24 hours, the cells of one plate (zero plate) were dyed with crystal violet (see below), whereas the medium of the other plates was replaced with fresh culture medium (200 μl) to which the test substances were added in various concentrations (0 μM, and also in the range of 0.001-10 μM; the final concentration of the solvent dimethyl sulphoxide was 0.1 or 0.5%). The cells were incubated for 4 days in the presence of the test substances. […] After washing the fixed cells three times with water, the plates were dried at room temperature. The cells were stained by adding 100 μl/measurement point of a 0.1% strength crystal violet solution (pH adjusted to pH 3 by adding acetic acid). After washing the cells three times with water, the plates were dried at room temperature. The dye was dissolved by adding 100 μl/measurement point of a 10% strength acetic acid solution. […] The percentage change in cell growth was calculated by normalizing the measured values to the absorbance values of the zero plate (=0%) and the absorbance of the untreated (0 W) cells (=100%). The IC50 values were determined by means of a four parameter fit.

Turning to `Cc1cc(-c2cc(N3CCOC[C@H]3C)nc3c(-c4ccn[nH]4)nccc23)c(C)n1C` [Example 264, 2-[(3R)-3-methylmorpholin-4-yl]-8-(1H-pyrazol-5-yl)-4-(1,2,5-trimethyl-1H-pyrrol-3-yl)-1,7-naphthyridine], the pIC50 is 6.70.
To `Cc1n[nH]cc1-c1cc(N2CCOC[C@H]2C)nc2c(-c3ccn[nH]3)nccc12` [Example 266, 2-[(3R)-3-methylmorpholin-4-yl]-4-(3-methyl-1H-pyrazol-4-yl)-8-(1H-pyrazol-5-yl)-1,7-naphthyridine] belongs 6.81.
To `C[C@@H]1COCCN1c1cc(N)c2ccnc(-c3ccn[nH]3)c2n1` [Example 267, 2-[(3R)-3-methylmorpholin-4-yl]-8-(1H-pyrazol-5-yl)-1,7-naphthyridin-4-amine] belongs 5.53.
The result for `CC(C)Cn1cc(-c2cc(N3CCOC[C@H]3C)nc3c(-c4ccn[nH]4)nccc23)cn1` [Example 268, 2-[(3R)-3-methylmorpholin-4-yl]-4-[1-(2-methylpropyl)-1H-pyrazol-4-yl]-8-(1H-pyrazol-5-yl)-1,7-naphthyridine] reads 6.38.
Regarding `C[C@@H]1COCCN1c1cc(-c2cn[nH]c2)c2ccnc(-c3ccn[nH]3)c2n1` [Example 269, 2-[(3R)-3-methylmorpholin-4-yl]-4-(1H-pyrazol-4-yl)-8-(1H-pyrazol-5-yl)-1,7-naphthyridine], the pIC50 was 6.39.
Turning to `C[C@@H]1COCCN1c1cc(-c2ncco2)c2ccnc(-c3ccn[nH]3)c2n1` [Example 270, 2-[(3R)-3-methylmorpholin-4-yl]-4-(1,3-oxazol-2-yl)-8-(1H-pyrazol-5-yl)-1,7-naphthyridine], the pIC50 is 6.25.
For `Cc1nn(C)cc1-c1cc(N2CCOCC2)nc2c(-c3ccn[nH]3)nccc12` [Example 271, 4-(1,3-dimethyl-1H-pyrazol-4-yl)-2-(morpholin-4-yl)-8-(1H-pyrazol-5-yl)-1,7-naphthyridine], the pIC50 was 5.88.
Regarding `Cc1c(-c2cc(N3CCOCC3)nc3c(-c4ccn[nH]4)nccc23)cnn1C` [Example 272, 4-(1,5-dimethyl-1H-pyrazol-4-yl)-2-(morpholin-4-yl)-8-(1H-pyrazol-5-yl)-1,7-naphthyridine], the pIC50 is 6.19.
For `Cc1nn(C)c(C)c1-c1cc(N2CCOCC2)nc2c(-c3ccn[nH]3)nccc12` [Example 273, 2-(morpholin-4-yl)-8-(1H-pyrazol-5-yl)-4-(1,3,5-trimethyl-1H-pyrazol-4-yl)-1,7-naphthyridine], the pIC50 is 6.00.
To `COCCS(C)(=O)=Nc1cc(N2CCOC[C@H]2C)nc2c(-c3ccn[nH]3)nccc12` (stereo partly drawn) [Example 274, 4-{[(2-methoxyethyl)(methyl)oxido-λ^6-sulfanylidene]amino}-2-[(3R)-3-methylmorpholin-4-yl]-8-(1H-pyrazol-5-yl)-1,7-naphthyridine] belongs 6.21; to `C[C@@H]1COCCN1c1cc(N=S(C)(=O)c2ccc(Br)cc2)c2ccnc(-c3ccn[nH]3)c2n1` (stereo partly drawn) [Example 277, 4-{[(4-bromophenyl)(methyl)oxido-λ^6-sulfanylidene]amino}-2-[(3R)-3-methylmorpholin-4-yl]-8-(1H-pyrazol-5-yl)-1,7-naphthyridine], 6.40; to `C[C@@H]1COCCN1c1cc(N=S(C)(=O)C(C)(C)C)c2ccnc(-c3ccn[nH]3)c2n1` (stereo partly drawn) [Example 278, 4-{[tert-butyl(methyl)oxido-λ^6-sulfanylidene]amino}-2-[(3R)-3-methylmorpholin-4-yl]-8-(1H-pyrazol-5-yl]-1,7-naphthyridine], 6.77.
As for `O=S1(=Nc2cc(N3CCOCC3)nc3c(-c4ccn[nH]4)nccc23)CCCCC1` [Example 280, N-[2-(morpholin-4-yl)-8-(1H-pyrazol-5-yl)-1,7-naphthyridin-4-yl]hexahydro-1λ^4-thiopyran-1-imine 1-oxide], the pIC50 was 6.38.
The result for `CC(C)C(C)(O)c1cc(N2CCOC[C@H]2C)nc2c(-c3ccn[nH]3)nccc12` (stereo partly drawn) [Example 281, 3-methyl-2-{2-[(3R)-3-methylmorpholin-4-yl]-8-(1H-pyrazol-5-yl)-1,7-naphthyridin-4-yl}butan-2-ol] reads 6.59; that for `C[C@@H]1COCCN1c1cc(C(C)(O)C2CCOCC2)c2ccnc(-c3ccn[nH]3)c2n1` (stereo partly drawn) [Example 282, 1-{2-[(3R)-3-methylmorpholin-4-yl]-8-(1H-pyrazol-5-yl)-1,7-naphthyridin-4-yl}-1-(tetrahydro-2H-pyran-4-yl)ethanol], 5.93.
For `C[C@@H]1COCCN1c1cc(C(C)(O)C(C)(C)C)c2ccnc(-c3ccn[nH]3)c2n1` (stereo partly drawn) [Example 283, 3,3-dimethyl-2-{2-[(3R)-3-methylmorpholin-4-yl]-8-(1H-pyrazol-5-yl)-1,7-naphthyridin-4-yl}butan-2-ol], the pIC50 is 6.84.
To `CCCCC(C)(O)c1cc(N2CCOC[C@H]2C)nc2c(-c3ccn[nH]3)nccc12` (stereo partly drawn) [Example 284, 2-{2-[(3R)-3-methylmorpholin-4-yl]-8-(1H-pyrazol-5-yl)-1,7-naphthyridin-4-yl}hexan-2-ol] belongs 6.07; to `O=C(NC1CC1)c1ccc(-c2cc(N3CCOCC3)nc3c(-c4ccn[nH]4)nccc23)cc1` [Example 291, N-cyclopropyl-4-[2-(morpholin-4-yl)-8-(1H-pyrazol-5-yl)-1,7-naphthyridin-4-yl]benzamide], 5.82.
To `Cc1ccncc1-c1cc(N2CCOCC2)nc2c(-c3ccn[nH]3)nccc12` [Example 292, 4-(4-methylpyridin-3-yl)-2-(morpholin-4-yl)-8-(1H-pyrazol-5-yl)-1,7-naphthyridine] belongs 5.58.
`c1cc(-c2cc(N3CCOCC3)nc3c(-c4ccn[nH]4)nccc23)c2cc[nH]c2c1` [Example 294, 4-(1H-indol-4-yl)-2-(morpholin-4-yl)-8-(1H-pyrazol-5-yl)-1,7-naphthyridine]: the pIC50 was 5.61.
The result for `NC(=O)c1ccc(-c2cc(N3CCOCC3)nc3c(-c4ccn[nH]4)nccc23)cc1` [Example 296, 4-[2-(morpholin-4-yl)-8-(1H-pyrazol-5-yl)-1,7-naphthyridin-4-yl]benzamide] reads 5.56.
The result for `Fc1cccc(-c2cc(N3CCOCC3)nc3c(-c4ccn[nH]4)nccc23)c1` [Example 298, 4-(3-fluorophenyl)-2-(morpholin-4-yl)-8-(1H-pyrazol-5-yl)-1,7-naphthyridine] reads 5.61; that for `Clc1ccc(-c2cc(N3CCOCC3)nc3c(-c4ccn[nH]4)nccc23)s1` [Example 299, 4-(5-chlorothiophen-2-yl)-2-(morpholin-4-yl)-8-(1H-pyrazol-5-yl)-1,7-naphthyridine], less than 5.52.
`FC(F)(F)c1ccccc1-c1cc(N2CCOCC2)nc2c(-c3ccn[nH]3)nccc12` [Example 301, 2-(morpholin-4-yl)-8-(1H-pyrazol-5-yl)-4-[2-(trifluoromethyl)phenyl]-1,7-naphthyridine]: the pIC50 was 5.55.
To `FC(F)(F)c1cccc(-c2cc(N3CCOCC3)nc3c(-c4ccn[nH]4)nccc23)c1` [Example 303, 2-(morpholin-4-yl)-8-(1H-pyrazol-5-yl)-4-[3-(trifluoromethyl)phenyl]-1,7-naphthyridine] belongs less than 5.52; to `Clc1cccc(-c2cc(N3CCOCC3)nc3c(-c4ccn[nH]4)nccc23)c1` [Example 304, 4-(3-chlorophenyl)-2-(morpholin-4-yl)-8-(1H-pyrazol-5-yl)-1,7-naphthyridine], less than 5.52.
As for `COc1cccc(-c2cc(N3CCOCC3)nc3c(-c4ccn[nH]4)nccc23)c1` [Example 306, 4-(3-methoxyphenyl)-2-(morpholin-4-yl)-8-(1H-pyrazol-5-yl)-1,7-naphthyridine], the pIC50 was less than 5.52.
To `c1coc(Cc2cc(N3CCOCC3)nc3c(-c4ccn[nH]4)nccc23)c1` [Example 310, 4-(furan-2-ylmethyl)-2-(morpholin-4-yl)-8-(1H-pyrazol-5-yl)-1,7-naphthyridine] belongs less than 5.52.
To `Cc1cccc(-c2cc(N3CCOCC3)nc3c(-c4ccn[nH]4)nccc23)c1C` [Example 312, 4-(2,3-dimethylphenyl)-2-(morpholin-4-yl)-8-(1H-pyrazol-5-yl)-1,7-naphthyridine] belongs less than 5.52; to `OCc1cccc(-c2cc(N3CCOCC3)nc3c(-c4ccn[nH]4)nccc23)c1` [Example 313, {3-[2-(morpholin-4-yl)-8-(1H-pyrazol-5-yl)-1,7-naphthyridin-4-yl]phenyl}methanol], 5.60; to `Fc1ccc(-c2cc(N3CCOCC3)nc3c(-c4ccn[nH]4)nccc23)cc1` [Example 314, 4-(4-fluorophenyl)-2-(morpholin-4-yl)-8-(1H-pyrazol-5-yl)-1,7-naphthyridine], less than 5.52.
With `Clc1ccc(-c2cc(N3CCOCC3)nc3c(-c4ccn[nH]4)nccc23)cc1` [Example 316, 4-(4-chlorophenyl)-2-(morpholin-4-yl)-8-(1H-pyrazol-5-yl)-1,7-naphthyridine], the pIC50 was less than 5.52.
The result for `COc1cccc(-c2cc(N3CCOCC3)nc3c(-c4ccn[nH]4)nccc23)c1F` [Example 317, 4-(2-fluoro-3-methoxyphenyl)-2-(morpholin-4-yl)-8-(1H-pyrazol-5-yl)-1,7-naphthyridine] reads 5.53; that for `Cc1ccccc1-c1cc(N2CCOCC2)nc2c(-c3ccn[nH]3)nccc12` [Example 318, 4-(2-methylphenyl)-2-(morpholin-4-yl)-8-(1H-pyrazol-5-yl)-1,7-naphthyridine], 5.70; that for `CN(C)c1cccc(-c2cc(N3CCOCC3)nc3c(-c4ccn[nH]4)nccc23)c1` [Example 320, N,N-dimethyl-3-[2-(morpholin-4-yl)-8-(1H-pyrazol-5-yl)-1,7-naphthyridin-4-yl]aniline], less than 5.52.
As to `CN(C)c1ccccc1-c1cc(N2CCOCC2)nc2c(-c3ccn[nH]3)nccc12` [Example 321, N,N-dimethyl-2-[2-(morpholin-4-yl)-8-(1H-pyrazol-5-yl)-1,7-naphthyridin-4-yl]aniline], the pIC50 was less than 5.52.
On to `CS(=O)(=O)Nc1ccccc1-c1cc(N2CCOCC2)nc2c(-c3ccn[nH]3)nccc12` [Example 322, N-{2-[2-(morpholin-4-yl)-8-(1H-pyrazol-5-yl)-1,7-naphthyridin-4-yl]phenyl}methanesulfonamide], for which the pIC50 was less than 5.52.

The record behind these values is US10772893B2, “2-(morpholin-4-yl)-1,7-naphthyridines” (BAYER PHARMA AKTIENGESELLSCHAFT, priority 2014, dated 2020).
